Measured values from US5725870A, “Methods, composites and articles for contraception” (priority 1996, dated 1998).
Values after ≈ are worked out from the molar mass of the structure shown. Values joined by “and” are separate entries in the source; they are usually repeats but may differ in a detail not shown here. Equal entries are not always repeated. Where two headings read alike, the source gives them in different places.

Experiments:
[1] = system: cystine crystals found in the corneas; settings: topical aqueous 0.1% and 0.5%; cited from earlier work
CEM-T4 lymphocytes = settings: 100 μM, added twice-daily; cited from earlier work
HIV = test: Activity against HIV, test not described; type: cell-based
Description: (§1) and may be prepared by the H2 O2 oxidation of cysteamine (Mills, Jr. et al, J. Am. Chem. Soc., vol. 62, 1173 (1940); and Barnett, J. Chem. Soc., 1944, 5).

[2] = Cytotoxicity in HIV experiments, test not described; type: cell-based
Description: as §1

Human acrosin = target: T1, Human acrosin (Homo sapiens, UniProt P10323); test: Acrosin inhibition assay; type: biochemical; settings: for Acrosin Activity: control 5.4 ± 0.14; for Acrosin Inhibitor (active yes/no): screened at 1 mg/ml
T1 construct: human acrosin is isolated from washed spermatozoa from frozen semen; from tissue; host or cells: washed human spermatozoa from frozen semen; acid extract, ultrafiltration, Sephadex G-150 pool
Description: Human acrosin activity is measured by following the progression of hydrolysis of N-α-benzoyl-L-arginine ethyl ester (BAEE) spectrophotometrically at 253 nm. Enzyme isolation, partial purification and measurement are carried out by methods described in detail by Anderson et al. (Biochem. J., vol. 199, pp. 307-316 (1981)). Briefly, human acrosin is isolated from washed spermatozoa from frozen semen by extraction with 66 mM acetic acid, pH 2.8. The extract is concentrated by ultrafiltration (Amicon PM 10) and applied to a column that contains Sephadex G-150 (superfine); elution is carried out with 55 mM acetic acid that contains 0.1M NaCl. The eluted volume that contains acrosin activity is pooled and used as the source of enzyme.
Enzyme reaction mixtures contain the following: 50 mM sodium phosphate, pH 7.5 (Anderson et al, Arch. Biochem. Biophys., vol. 241, pp. 509-520 (1985)); Enzyme-containing protein (3-5 mIU, where 1 mIU is the amount of enzyme required to hydrolyze 1 nmole BAEE per min); 0.05 mM BAEE; with or without inhibitor, in a total volume of 1.0 ml.
The test compound is screened at a concentration of 1 mg/ml, unless solubility is limited. The enzyme is preincubated with the test agent for 5 minutes prior to starting the reaction by adding BAEE. Reaction blanks, in which either substrate or enzyme has been eliminated, are run in parallel to the reactions.
The rate of change in absorbance at 253 nm is determined. The change in absorbance that corresponds to 1 μmole of BAEE (in a total volume of 1.0 ml) hydrolyzed is taken as 1.15.
The enzyme activity in the presence of each agent is compared with that for the control reaction (no test agent added). The data are reported as % inhibition. […] A dose-response curve is generated at several concentrations of test compound if significant inhibition is obtained at the screening concentration.
Reversibility of acrosin inhibition is determined by the method of Ackermann and Potter (Proc. Soc. Exp. Biol. Med., vol. 72, pp. 1-9 (1949)), in which the level of inhibited enzyme activity is determined in the presence of different amounts of enzyme.
(§2) IC50 values (those concentrations of inhibitor that produce 50% inhibition under the conditions of the assay) are determined by analyzing enzyme activity as a function of inhibitor concentration, with curve-fitting software (TableCurve 2D, version 3.02; Jandel Scientific).

motile spermatozoa = test: Assessment of spermicidal activity (sperm motility, Sander and Cramer); type: cell-based
Description: The method is based on that originally described by Sander and Cramer (F. V. Sander and S. D. Cramer. Human Fertil., vol. 6, pp. 134 (1941)). Apparent spermicidal activity of the test agents are compared to that of a control preparation of nonoxynol-9 (N9).
For the screening of spermicidal activity of a test agent, a solution of 50 mg/ml is prepared in 0.9% NaCl. This solution is adjusted to pH 7.0 with either HCl or NaOH and is further diluted in 0.9% NaCl to concentrations of 25 mg/ml, 10 mg/ml, 5 mg/ml, and 2.5 mg/ml. N9 is prepared as a solution of 100 μg/ml in 0.9% NaCl.
The agents are tested by mixing 40 μl of freshly ejaculated semen with 200 μl of test agent at each concentration. Just prior to and 30 seconds after mixing, the percentage of motile spermatozoa is determined by microscopic observation (400×). If 90-100% inhibition of motility is obtained at the lowest concentration tested, the experiment is repeated with a different range of concentrations, the highest concentration being 2.5 mg/ml. A dose-response curve is constructed.

Lactobacillus gasseri = test: Assay of vaginal lactobacillus growth; type: cell-based
Description: Cysteamine was screened with regard to its potential cytotoxicity toward normal vaginal flora. Growth of vaginal lactobacillus was used as a measure of this effect.
Lactobacillus gasseri, obtained from the American Type Culture Collection (Rockville, Md.) is cultured under anaerobic conditions at 37° in the presence of test agent or no additions (control). Beginning at 120 minutes after the start of incubation and at 20 minute intervals, for a total length of 240 minutes, samples are removed from the incubation flasks, and the absorbance of each suspension at 550 nm is determined, as an estimate of cell density. Data are fit to the equation, Ln (Absorbance)=a+b (Time), where a is the absorbance at 0 time, b is the slope of the curve, and time is measured in minutes. The doubling time (TD) is calculated from the equation TD =(Ln 2)/b. Values are given as the doubling time of bacterial growth, together with the 90% confidence limits. Inhibition of bacterial growth by a test agent can be directly calculated from the reciprocal values of the doubling time (i.e., 75% inhibition of the reciprocal of the calculated doubling time is equal to 75% inhibition of bacterial growth).
Dose-response curves are produced by determining the doubling time of the culture in the presence of each of several concentrations of test agent, the exact range of which is determined by the results of the screening test that is described above. The concentration of test agent that inhibits the growth of lactobacillus by 50% (IC50) is determined from the calculated doubling time at each concentration of test agent, with curve-fitting software (TableCurve 2D, version 3.02, Jandel Scientific).

HTLVIIIB = settings: 100 μM, added twice-daily, CEM-T4 lymphocytes; cited from earlier work
[3] = target: T2, sheep testicular hyaluronidase (Ovis aries, UniProt A0ACI6R774); test: Hyaluronidase inhibition assay; type: biochemical; settings: for Absorbance at 545 nm, Reaction: blank 0.0463
T2 construct: soluble form of GPI-anchored sperm protein
T2 sequence (A0ACI6R774 34-551): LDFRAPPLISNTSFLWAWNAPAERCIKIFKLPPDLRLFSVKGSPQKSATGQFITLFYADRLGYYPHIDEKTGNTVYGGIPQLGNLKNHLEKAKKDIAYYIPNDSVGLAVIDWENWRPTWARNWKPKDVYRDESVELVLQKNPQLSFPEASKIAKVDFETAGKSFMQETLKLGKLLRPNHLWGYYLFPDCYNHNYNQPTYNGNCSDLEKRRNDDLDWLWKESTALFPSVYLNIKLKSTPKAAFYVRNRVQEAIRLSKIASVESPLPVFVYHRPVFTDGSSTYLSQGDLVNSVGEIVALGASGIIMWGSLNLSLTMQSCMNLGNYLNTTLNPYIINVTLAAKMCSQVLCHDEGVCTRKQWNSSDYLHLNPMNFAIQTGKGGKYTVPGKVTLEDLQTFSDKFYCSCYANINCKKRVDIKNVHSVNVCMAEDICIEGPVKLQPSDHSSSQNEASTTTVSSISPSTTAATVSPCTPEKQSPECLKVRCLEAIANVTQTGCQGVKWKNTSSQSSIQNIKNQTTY
Description: Hyaluronidase activity is quantified by measuring the extent of hyaluronic acid hydrolysis. This is measured by determining the concentration of N-acetylglucosamine-reactive material, resulting from enzyme action.
Reaction mixtures contain the following, in a total volume of 0.25 ml: 0.1M sodium acetate, containing 0.15M NaCl, pH 5.5 (Acetate buffer); 7.2 Units sheep testicular hyaluronidase (Sigma, Type III; cat. no. H-2251), from a stock solution dissolved in the Acetate buffer; 0.3 mg/ml hyaluronic acid (Sigma, from bovine vitreous humor, cat-no. H-7630).
The test compound is screened at a concentration of 1 mg/ml, unless aqueous solubility is limited. The enzyme is preincubated with the test agent for 10 minutes prior to starting the reaction by adding hyaluronic acid. Enzyme reactions are determined by the method of Aronson and Davidson (J. Biol. Chem., vol. 242, pp. 437-440 (1967)). Incubations are carried out for 30 minutes at ambient temperature. Reaction product is determined colorimetrically after reaction with p-dimethylaminobenzaldehyde (Reissig et al., J. Biol. Chem., vol. 217, pp. 959-966 (1955)). The absorbance of the resultant adduct is immediately determined at 545 nm.
Differences are determined between absorbencies for reactions run in the presence and absence of hyaluronidase (blank, in which hyaluronidase is added after terminating reaction). This is compared to a standard curve of known amounts of N-acetylglucosamine that were treated identically to enzyme reaction mixtures, and converted to μmole equivalents of N-acetylglucosamine. The data are reported as % inhibition, compared to control. A dose-response curve is generated at several concentrations of test compound if significant inhibition is obtained at the screening concentration.
as §2

epithelial fibroblasts = settings: cited from earlier work
[4] = 1 mg/ml test agent, 10 min preincubation

T1 sequence (P10323 43-343 limits assumed): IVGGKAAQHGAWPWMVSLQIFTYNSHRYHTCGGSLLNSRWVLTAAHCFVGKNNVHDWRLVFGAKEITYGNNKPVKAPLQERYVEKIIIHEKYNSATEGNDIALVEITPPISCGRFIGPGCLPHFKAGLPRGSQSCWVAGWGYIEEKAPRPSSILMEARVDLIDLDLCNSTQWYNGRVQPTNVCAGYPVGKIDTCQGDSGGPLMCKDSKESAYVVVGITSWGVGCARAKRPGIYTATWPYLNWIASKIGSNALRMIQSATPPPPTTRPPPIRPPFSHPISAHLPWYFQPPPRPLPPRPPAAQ
T1 sequence (P10323 20-42 partner limits assumed): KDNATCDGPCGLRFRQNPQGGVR

Compound: NCCS [cysteamine, Cysteamine]
- Reduction of corneal cystine crystals [1]: effective in reducing the cystine crystals
- Tolerability in chronic topical use [1]: well-tolerated
- Toxicity (cell survival) (CEM-T4 lymphocytes): 120.8 % of control
- Antiviral effect against HIV (HIV; other cell lines and other HIV strains): substantiate the antiviral effect
- Cellular toxicity [2]: lack of cellular toxicity
- Acrosin Activity (Human acrosin; cysteamine 0.08 mg/ml): 5.2 ± 0.74 μmoles BAEE hydrolyzed/min/mg
- Acrosin Activity (Human acrosin; cysteamine 0.10 mg/ml): 3.8 ± 0.32 μmoles BAEE hydrolyzed/min/mg
- Acrosin Activity (Human acrosin; cysteamine 0.25 mg/ml): 3.4 ± 0.10 μmoles BAEE hydrolyzed/min/mg
- Acrosin Activity (Human acrosin; cysteamine 0.50 mg/ml): 2.2 μmoles BAEE hydrolyzed/min/mg
- Acrosin Activity (Human acrosin; cysteamine 0.8 mg/ml): 0.9 ± 0.28 μmoles BAEE hydrolyzed/min/mg
- Acrosin Activity (Human acrosin; cysteamine 1.0 mg/ml): 0.6 μmoles BAEE hydrolyzed/min/mg
- 3 Log reduction (99.9% inhibition) of acrosin (Human acrosin; from fitted curve, above highest tested concentration): 3.3 mg/ml
- IC99.9 (Human acrosin; from fitted curve, above highest tested concentration, read-out: 3 Log reduction (99.9% inhibition) of acrosin): 3270 µg/mL
- Reversibility of acrosin inhibition (Human acrosin; method of Ackermann and Potter, different amounts of enzyme): consistent with a reversible mechanism of inhibition
- Acrosin Inhibitor (active yes/no) (Human acrosin): active
- Acrosin Inhibitor (active yes/no) (Human acrosin; listed as Cysteamine): Yes
- IC50 (Human acrosin; summary table): 4.8 mM
- Spermicide (effect on sperm motility, in words) (motile spermatozoa): reduce sperm motility
- Spermicide (effect on sperm motility, in words) (motile spermatozoa; listed as Cysteamine): Yes
- % Inhibition at 5 mg/ml (growth of vaginal lactobacillus) (Lactobacillus gasseri): no effect
- % Inhibition at 5 mg/ml (growth of vaginal lactobacillus) (Lactobacillus gasseri; listed as Cysteamine): No inhibition
- inhibition at 5000 µg/mL (Lactobacillus gasseri; Lactobacillus gasseri, read-out: % Inhibition at 5 mg/ml (growth of vaginal lactobacillus)): 0%
- Survival of treated cells, protection against HTLVIIIB (HTLVIIIB): 133 % of control
- IC20 [3]: 87 µg/mL (≈ 1130 µM)
- IC80 [3]: 219 µg/mL (≈ 2840 µM)
- % Inhibition at 1 mg/ml (hyaluronidase) [3, 4]: completely inhibit
- inhibition at 1000 µg/mL [3, 4]: 100%
- Absorbance at 545 nm, Reaction ([3]; cysteamine 1.6 μg/ml): 0.1892 and 0.1967
- Absorbance at 545 nm, Reaction ([3]; cysteamine 8.0 μg/ml): 0.1955 and 0.1853
- Absorbance at 545 nm, Reaction ([3]; cysteamine 40.0 μg/ml): 0.1775 and 0.1855
- Absorbance at 545 nm, Reaction ([3]; cysteamine 200 μg/ml): 0.0585 and 0.0656
- Absorbance at 545 nm, Reaction ([3]; cysteamine 1,000 μg/ml): 0.0068 and 0.0069
- Hyaluronidase Inhibitor (yes/no) ([3]; summary table): Yes
- Cloning efficiency (epithelial fibroblasts; 10 μM): severe loss in cloning efficiency
- Cloning efficiency (epithelial fibroblasts; One hundred μM): zero
- Doubling time (epithelial fibroblasts; One hundred μM): two-fold increase
- Effect on growth rate (epithelial fibroblasts; concentrations up to 10 μM): no effect on growth rate

Compound: nonylphenoxypolyoxyethene glycol [nonoxynol-9, reference compound]
- % Inhibition (growth of vaginal lactobacillus) (Lactobacillus gasseri; Tested at 0.5 mg/ml): 60%
- % Inhibition at 1 mg/ml (hyaluronidase) [3, 4]: 4%

Compound: NCCSSCCN [Cystamine]
- Activity against the HIV pathogen (HIV): substantial activity
- Cytotoxicity ([2]; 100 μM): little cytotoxicity
